{"source": "paper PMC12383815", "about": "(Biomolecules, 2025)", "note": "Structures can show the parent of a compound that is named as a salt."}
{"biological_target": "T1, shikimate dehydrogenase (SaSDH) (Staphylococcus aureus, UniProt Q6GGA5)", "T1 construct": "gene aroE", "T1 sequence (Q6GGA5 1-268)": "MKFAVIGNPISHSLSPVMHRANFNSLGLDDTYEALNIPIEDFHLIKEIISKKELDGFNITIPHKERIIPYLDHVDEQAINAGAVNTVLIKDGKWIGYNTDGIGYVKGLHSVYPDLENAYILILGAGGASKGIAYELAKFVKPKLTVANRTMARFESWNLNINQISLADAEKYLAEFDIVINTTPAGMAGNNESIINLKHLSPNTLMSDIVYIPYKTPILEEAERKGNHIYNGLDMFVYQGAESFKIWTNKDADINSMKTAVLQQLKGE", "assay": "biochemical", "design": "SaSDH enzyme activity inhibition screening at 500 uM, 10% DMSO", "conditions": "not given", "procedure": "The inhibition percentage was determined by measuring enzyme activity under the conditions previously described by adding each compound from an in-house natural product derivative chemical library (40 compounds) to the reaction mixture at quantities of 500 μM; these compounds had been previously dissolved in Dimethyl Sulfoxide (DMSO), keeping 10% DMSO as final concentration. The percentage inhibition was calculated by adjusting the data from the following equation [33]: Inhibition %=A0−A1/A0 ×100 where the following definitions are used: In the search for new SaSDH inhibitors, an in-house chemical library of 40 natural product derivatives was screened against SaSDH activity. Our findings indicate that among the 40 molecules evaluated, the compounds phloridzin (93% of inhibition), rutin (87% of inhibition), and caffeic acid (70% of inhibition) inhibited SaSDH using a 500 µM concentration.", "units": {"inhibition at 500 µM": "%"}}
{"smiles": "CC(C)=CCC1=C(O)C(=O)c2ccccc2C1=O", "note": "[Lapachol]", "inhibition at 500 µM": 6}
{"smiles": "Brc1nc2ccccc2[nH]1", "note": "[2-Bromo-1H-benzimidazole]", "inhibition at 500 µM": 10}
{"smiles": "FC(F)(F)c1ccc(Br)cn1", "note": "[5-Bromo-2-(trifluoromethyl)pyridine]", "inhibition at 500 µM": 9}
{"smiles": "Clc1ccnc(Cl)c1", "note": "[2,4-Dichloropyridine]", "inhibition at 500 µM": 19}
{"smiles": "O=C1CNCCN1", "note": "[2-Oxopiperazine]", "inhibition at 500 µM": 13}
{"smiles": "COc1ccc(-c2coc3cc(O)ccc3c2=O)cc1", "note": "[Formononetin]", "inhibition at 500 µM": 13}
{"smiles": "Cc1ncc(CO)c(C)c1O", "note": "[4-Deoxypyridoxine hydrochloride]", "inhibition at 500 µM": 12}
{"smiles": "COc1cc(C(=O)OCCCCNC(=N)N)cc(OC)c1O", "note": "[Leonurine]", "inhibition at 500 µM": 13}
{"smiles": "Nc1ccc(Br)cn1", "note": "[2-Amino-5-bromopyridine]", "inhibition at 500 µM": 8}
{"smiles": "O=C(O)c1cccnc1", "note": "[Nicotinic acid]", "inhibition at 500 µM": 20}
{"smiles": "C1SCC2OC12", "note": "(centres unmarked) [3,4-Epoxy-tetrahydrothiophene]", "inhibition at 500 µM": 9}
{"smiles": "CC1=CC(=O)c2ccccc2C1=O", "note": "[Menadione]", "inhibition at 500 µM": 17}
{"smiles": "O=Cc1c[nH]c2c1ccc1ccccc12", "note": "[1H-Benzo[g]indole-3-carboxaldehyde]", "inhibition at 500 µM": 19}
{"smiles": "OC[C@H]1O[C@@H](OCCc2ccc(O)cc2)[C@H](O)[C@@H](O)[C@@H]1O", "note": "[Salidroside]", "inhibition at 500 µM": 27}
{"smiles": "O=C1O[C@H]([C@@H](O)CO)C(O)=C1O", "note": "[L-Ascorbic acid]", "inhibition at 500 µM": 4.5}
{"smiles": "O=C(Cl)c1nc2ccccc2s1", "note": "[Benzothiazole-2-carbonyl chloride]", "inhibition at 500 µM": 14}
{"smiles": "Fc1ccc(Cl)nc1", "note": "[2-Chloro-5-fluoropyridine]", "inhibition at 500 µM": 18}
{"smiles": "O=c1[nH]cc(Br)cc1[N+](=O)[O-]", "note": "[5-Bromo-2-hydroxy-3-nitropyridine]", "inhibition at 500 µM": 18}
{"smiles": "Cc1ncc(CO)c(CO)c1O", "note": "[Pyridoxine]", "inhibition at 500 µM": 28}
{"smiles": "NC(=O)c1cccnc1", "note": "[Nicotinamide]", "inhibition at 500 µM": 5}
{"smiles": "COC(=O)c1ccc(OC)cc1O", "note": "[Methyl 4-methoxysalicylate]", "inhibition at 500 µM": 10}
{"smiles": "COC(=O)c1nc[nH]c1C(=O)OC", "note": "[Dimethyl imidazole-4,5-dicarboxylate]", "inhibition at 500 µM": 18}
{"smiles": "Cn1ccnc1S(=O)(=O)Cl", "note": "[1-Methylimidazole-2-sulfonyl chloride]", "inhibition at 500 µM": 13}
{"smiles": "COc1cccc(C(=O)O)c1", "note": "[3-Methoxybenzoic acid]", "inhibition at 500 µM": 2}
{"smiles": "N#Cc1cnc(N)s1", "note": "[2-Aminothiazole-5-carbonitrile]", "inhibition at 500 µM": 17}
{"smiles": "Nc1nc(-c2ccc3c(c2)CCCC3)cs1", "note": "[2-Amino-4-(5,6,7,8-tetrahydronaphthalen-2-yl)thiazole]", "inhibition at 500 µM": 8}
{"biological_target": "T2, shikimate dehydrogenase (SaSDH) (Staphylococcus aureus, UniProt Q6GGA5)", "T2 construct": "gene aroE", "assay": "recombinant enzyme activity, NADPH formation at […] nm, dose-response; progress-curve kinetics", "type": "biochemical", "conditions": "not given", "units": {"IC50": "µM"}}
{"smiles": "O=C(CCc1ccc(O)cc1)c1c(O)cc(O)cc1O[C@@H]1O[C@H](CO)[C@@H](O)[C@H](O)[C@H]1O", "note": "[Phloridzin]", "IC50": 140}
{"smiles": "O=C(O)/C=C/c1ccc(O)c(O)c1", "note": "[Caffeic acid]", "IC50": 240}
{"biological_target": "T2, shikimate dehydrogenase (SaSDH)", "assay": "recombinant enzyme activity, NADPH formation at […] nm, dose-response; progress-curve kinetics", "type": "biochemical", "conditions": "read-out: IC50", "units": {"IC50": "µM"}}
{"smiles": "C[C@@H]1O[C@@H](OC[C@H]2O[C@@H](Oc3c(-c4ccc(O)c(O)c4)oc4cc(O)cc(O)c4c3=O)[C@H](O)[C@@H](O)[C@@H]2O)[C@H](O)[C@H](O)[C@H]1O", "note": "[Rutin]", "IC50": 165}
